Biological target: T1, hFXR (Homo sapiens, UniProt Q96RI1)
T1 construct: expressed in transfected cells; host or cells: CV-1 cells
T1 sequence (Q96RI1 1-486): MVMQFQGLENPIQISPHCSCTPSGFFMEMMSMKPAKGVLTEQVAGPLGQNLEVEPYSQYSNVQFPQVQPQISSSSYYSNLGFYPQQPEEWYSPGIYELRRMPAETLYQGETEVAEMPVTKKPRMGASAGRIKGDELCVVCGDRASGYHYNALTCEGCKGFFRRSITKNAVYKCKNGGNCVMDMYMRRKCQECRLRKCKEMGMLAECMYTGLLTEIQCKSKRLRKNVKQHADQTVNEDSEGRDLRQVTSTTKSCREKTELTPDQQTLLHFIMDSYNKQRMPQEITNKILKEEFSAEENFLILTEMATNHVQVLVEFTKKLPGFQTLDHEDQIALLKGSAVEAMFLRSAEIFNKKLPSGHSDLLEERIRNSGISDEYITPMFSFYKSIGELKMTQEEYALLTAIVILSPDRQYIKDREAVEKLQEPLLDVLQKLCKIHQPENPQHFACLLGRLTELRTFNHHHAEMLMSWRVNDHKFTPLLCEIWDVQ
T1 sequence (P19793 1-462 partner): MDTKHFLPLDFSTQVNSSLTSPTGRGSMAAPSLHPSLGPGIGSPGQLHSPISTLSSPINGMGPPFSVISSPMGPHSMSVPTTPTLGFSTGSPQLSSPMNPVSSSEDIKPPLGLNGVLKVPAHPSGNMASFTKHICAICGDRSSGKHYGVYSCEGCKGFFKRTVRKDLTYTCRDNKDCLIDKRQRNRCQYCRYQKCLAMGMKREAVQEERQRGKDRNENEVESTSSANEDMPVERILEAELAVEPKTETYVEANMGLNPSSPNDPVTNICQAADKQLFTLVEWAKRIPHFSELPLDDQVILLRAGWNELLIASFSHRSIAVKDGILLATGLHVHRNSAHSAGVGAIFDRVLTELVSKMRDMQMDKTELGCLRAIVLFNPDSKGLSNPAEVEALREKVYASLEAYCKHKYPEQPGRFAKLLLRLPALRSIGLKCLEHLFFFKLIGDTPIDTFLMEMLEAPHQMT
Assay: In Vitro FXR Assay (TK): TK-ECRE-luc reporter in transfected CV-1 cells
Format: cell-based
Settings: 18 hrs incubation, luminescence
Procedure: Example B-1: In Vitro FXR Assay (TK)
CV-1 cells were seeded at a density of 2,000,000 cells in a T175 flask with DMEM+10% charcoal double-stripped FBS and incubated at 37° C. in 5% CO2 for 18 h (O/N).
After 18 h of incubation, the medium in the T175 flask was changed with fresh DMEM+10% charcoal super-stripped serum. In a polypropylene tube, 2500 μL OptiMEM (Life Technologies, Cat #31985-062) was combined with expression plasmids for hFXR, hRXR, TK-ECRE-luc and pCMX-YFP. The tube was then briefly vortexed and incubated at room temperature for 5 minutes. Transfection reagent (X-tremeGENE HP from Roche, Cat #06 366 236 001) was added to the OptiMEM/plasmid mixture vortexed and incubated at room temperature for 20 minutes. Following incubation, the transfection reagent/DNA mixture complex was added to cells in the T175 flask and the cells were incubated at 37° C. in 5% CO2 for 18 h (O/N).
Compounds were serially diluted in DMSO and added to transfected CV-1 cells. The cells were then incubated for 18 hrs. The next day cells were lysed and examined for luminescence.

Structure (SMILES)	EC50 [µM]
COC(=O)N[C@H]1CC[C@H](C(=O)N(CC23CCC(c4ccc(OC)c(C)c4)(CC2)CC3)c2cc(-c3cnn(C(C)C)c3)ccn2)CC1 [Compound 8, Methyl trans-(4-((4-(1-isopropyl-1H-pyrazol-4-yl)pyridin-2-yl)((4-(4-methoxy-3-methylphenyl)bicyclo[2.2.2]octan-1-yl)methyl)carbamoyl)cyclohexyl)carbamate]	≤ 0.05
COc1ccc([C@H]2CC[C@H](CN(c3cccc(-c4coc(C5CC5)n4)c3)C(=O)[C@H]3CC[C@H](C(=O)OC)CC3)CC2)nc1C [Compound 18, trans-Methyl 4-((3-(2-cyclopropyloxazol-4-yl)phenyl)((trans-4-(5-methoxy-6-methylpyridin-2-yl)cyclohexyl)methyl)carbamoyl)cyclo-hexanecarboxylate]	≤ 0.05
COc1ccc([C@H]2CC[C@H](CN(c3cccc(-c4cnn(C(C)C)c4)c3)C(=O)[C@H]3CC[C@H](NC(=O)COCCCO)CC3)CC2)cc1C [Compound 13, trans-4-(2-(3-Hydroxypropoxy)acetamido)-N-(3-(1-isopropyl-1H-pyrazol-4-yl)phenyl)-N-((trans-4-(4-methoxy-3-methylphenyl)cyclohexyl)methyl)cyclohexanecarboxamide]	≤ 0.05
COc1ccc([C@H]2CC[C@H](CN(c3cc(-c4cnn(C(C)C)c4)ccn3)C(=O)[C@H]3CC[C@H](OC(=O)NC(C)C)CC3)CC2)cc1C [Compound 2.17, trans-4-((4-(1-Isopropyl-1H-pyrazol-4-yl)pyridin-2-yl)(((trans)-4-(4-methoxy-3-methylphenyl)cyclohexyl)methyl)carbamoyl) cyclohexyl isopropylcarbamate]	≤ 0.05
COc1ccc([C@H]2CC[C@H](CN(c3cc(-c4cnn(C(C)C)c4)ccn3)C(=O)[C@H]3CC[C@H](OC(=O)NCC(C)(F)F)CC3)CC2)cc1C [Compound 2.31, trans-4-((4-(1-Isopropyl-1H-pyrazol-4-yl)pyridin-2-yl)(((trans)-4-(4-methoxy-3-methylphenyl)cyclohexyl)methyl)carbamoyl) cyclohexyl(2,2-difluoropropyl)carbamate]	≤ 0.05
COc1ccc(C23CCC(CN(c4cc(-c5cnn(C(C)C)c5)c(Cl)cn4)C(=O)[C@H]4CC[C@H](OC(=O)N5CC(O)C5)CC4)(CC2)CC3)cc1C [Compound 26.01, 4-((5-Chloro-4-(1-isopropyl-1H-pyrazol-4-yl)pyridin-2-yl)((4-(4-methoxy-3-methylphenyl)bicyclo[2.2.2]octan-1-yl)methyl)carbamoyl)(trans-cyclohexyl) 3-hydroxyazetidine-1-carboxylate]	≤ 0.05
COc1ccc(C23CCC(CN(c4cc(C5CCN(C(C)C)C5)ccn4)C(=O)[C@H]4CC[C@H](OC(=O)N5CC(O)C5)CC4)(CC2)CC3)cc1C (stereo partly drawn) [Compound 23.18, 4-((4-(1-(Isopropylpyrrrolidin-3-yl)pyridin-2-yl)((4-(4-methoxy-3-methylphenyl)bicyclo[2.2.2]octan-1-yl)methyl)carbamoyl)cyclo-hexyl trans-3-hydroxyazetidine-1-carboxylate]	0.05 to 1
COc1ccc([C@H]2CC[C@H](CN(c3cccc(-c4cnn(C(C)C)c4)c3)C(=O)[C@H]3CC[C@H](OCCCO)CC3)CC2)cc1C [Compound 16, trans-4-(3-Hydroxypropoxy)-N-(3-(1-isopropyl-1H-pyrazol-4-yl)phenyl)-N-((trans-4-(4-methoxy-3-methylphenyl)cyclohexyl)methyl)cyclohexanecarboxamide]	≤ 0.05
COc1ccc(C23CCC(CN(c4cc(-c5cnn(C(C)C)c5)ccn4)C(=O)[C@H]4CC[C@H](OC(=O)NC(C)C)CC4)(CC2)CC3)cc1C [Compound 4.04, 4-((4-(1-Isopropyl-1H-pyrazol-4-yl)pyridin-2-yl)((4-(4-methoxy-3-methylphenyl)bicyclo [2.2.2]octan-1-yl)methyl)carbamoyl)cyclohexyl trans-isopropylcarbamate]	≤ 0.05
COc1ccc([C@H]2CC[C@H](CN(c3cccc(-c4cnn(C(C)C)c4)c3)C(=O)[C@H]3CC[C@H](OC(=O)NCC(C)(C)O)CC3)CC2)nc1C [Compound 5.01, trans-4-((3-(1-Isopropyl-1H-pyrazol-4-yl)phenyl)((trans-4-(5-methoxy-6-methylpyridin-2-yl)cyclohexyl)methyl)carbamoyl)cyclohexyl (2-hydroxy-2-methylpropyl) carbamate]	≤ 0.05
COc1ccc([C@H]2CC[C@H](CN(c3cccc(-c4cnn(C(C)C)c4)c3)C(=O)[C@H]3CC[C@H](OC(=O)N4CCN(C)CC4)CC3)CC2)cc1C [Compound 5.11, trans-4-((3-(1-Isopropyl-1H-pyrazol-4-yl)phenyl)((trans-4-(4-methoxy-3-methylphenyl)cyclohexyl)methyl)carbamoyl)cyclohexyl 4-methylpiperazine-1-carboxylate]	≤ 0.05
COc1ccc([C@H]2CC[C@H](CN(c3cccc(-c4cnn(C(C)C)c4)c3)C(=O)[C@H]3CC[C@H](OC(=O)NCCCF)CC3)CC2)cc1C [Compound 5.04, trans-4-((3-(1-Isopropyl-1H-pyrazol-4-yl)phenyl)(((trans)-4-(4-methoxy-3-methylphenyl)cyclohexyl)methyl)carbamoyl)cyclohexyl (3-fluoropropyl)carbamate]	≤ 0.05
COc1ccc(C23CCC(CN(c4cc(-c5coc(C(C)C)n5)ccn4)C(=O)[C@H]4CC[C@H](OC(=O)NC5COC5)CC4)(CC2)CC3)cc1C [Compound 23.04, 4-((4-(2-Isopropyloxazol-4-yl)pyridin-2-yl)((4-(4-methoxy-3-methylphenyl)bicyclo[2.2.2]octan-1-yl)methyl)carbamoyl)(trans-cyclohexyl)oxetan-3-ylcarbamate]	≤ 0.05
COc1ccc(C23CCC(CN(c4cc(-c5cnn(C(C)C)c5)ncn4)C(=O)[C@H]4CC[C@H](OC(=O)N5CC(CS(C)(=O)=O)C5)CC4)(CC2)CC3)cc1C [Compound 23.21, 4-((6-(1-Isopropyl-1H-pyrazol-4-yl)pyrimidin-4-yl)((4-(4-methoxy-3-methylphenyl)bicyclo[2.2.2]octan-1-yl)methyl)carbamoyl)(trans-cyclohexyl) 3-((methylsulfonyl)meth-yl)azetidine-1-carboxylate]	≤ 0.05
COc1ccc([C@H]2CC[C@H](CN(c3cc(-c4cnc(C(C)C)s4)ccn3)C(=O)[C@H]3CC[C@H](OC(=O)NC4COC4)CC3)CC2)cc1C [Compound 2.55, trans-4-((4-(2-Isopropylthiazol-5-yl)pyridin-2-yl)(((trans)-4-(4-methoxy-3-methylphenyl)cyclohexyl)methyl)carbamoyl)cyclohexyl oxetan-3-ylcarbamate]	≤ 0.05
COc1ccc(C23CCC(CN(c4cc(-c5cnn(C(C)C)c5)ccn4)C(=O)[C@H]4CC[C@H](OC(=O)N5CCN(C)CC5)CC4)(CC2)CC3)cc1C [Compound 4.15, 4-((4-(1-Isopropyl-1H-pyrazol-4-yl)pyridin-2-yl)((4-(4-methoxy-3-methylphenyl)bicyclo [2.2.2]octan-1-yl)methyl)carbamoyl)cyclohexyl 4-methylpiperazine-trans-1-carboxylate]	≤ 0.05
COc1ccc(C23CCC(CN(c4cc(-c5coc(C(C)C)n5)ccn4)C(=O)[C@H]4CC[C@H](OC(=O)NCCCO)CC4)(CC2)CC3)cc1C [Compound 23.02, 4-((4-(2-Isopropyloxazol-4-yl)pyridin-2-yl)((4-(4-methoxy-3-methylphenyl)bicyclo[2.2.2]octan-1-yl)methyl)carbamoyl)(trans-cyclohexyl)(3-hydroxypropyl)carbamate]	≤ 0.05

Source: patent US20220056019A1, “FARNESOID X RECEPTOR AGONISTS AND USES THEREOF” (Metacrine, Inc., priority 2018, published 2022)
